Results: patent US20130261142A1, “COMPOUNDS USED FOR TREATING CANCER AND THE USE THEREOF” (priority 2010, published 2013)
Entries after “also recorded” stand apart in the source; their conditions may differ. Counter-ions that a name gives are not always drawn.

How the values were obtained:
MCF-7 SPS cells [1] = experiment: LOPAC compounds tested on MCF-7 SPS cells (Table 2); conditions: Compounds that inhibit cancer stem cells, 3 μM stated for Niclosamide
Source text: The morphology and number of the spheroids were further analyzed by software image pro plus.

OVCA sps cells = experiment: LOPAC compounds tested on OVCA sps cells, MTS / ATP-based assay (Table 3); type: cell-based; conditions: proliferation and differentiation
Procedure: CP70 sps cells were seeded in a 96-well culture plate (1×10^3 cells/well) and cultured for 24 hr, and then treated with 30 μM of various compounds selected from the LOPAC database. Following 3-day treatment, the vitality of the treated cells was measured by CellTiter-Glo® Luminescent Cell Vitality Assay kit (Promega) according to the manufacturer's instructions.
(§1) The vitality of the treated cells was measured by MTS assay using MTS-based CellTiter 96 aqueous non-radioactive cell proliferation assay kit (Promega) according to the manufacturer's instructions.

CP70 sps cells = experiment: Cytotoxicity / vitality of CP70 sps cells (MTS assay); conditions: for inhibition / cytotoxicity effect on CP70 sps (OVCA sps) cells: 3 μM, MTS assay
Procedure: as §1
The vitality of the CP70 sps cells was measured by MTS assay. For preclinical test, two groups with five mice each were i.p. injected with 1×10^4 of CP70 sps cells alone or followed by Niclosamide treatment (10 mg/kg/daily) from day 1 to day 47, respectively. The body weights of the two groups of mice were monitored every 3 days during day 36 to day 48. After 48 days, the mice were sacrificed to examine the tumor nodules formation in the abdominal cavity.

[2] = system: OVCICs sps cells collected from ovarian cancer patient(s); experiment: Patients' OVCA specimen-derived cells (pdOVCICs / OVCICs sps), MTS assay; type: cell-based, human; conditions: in vitro
Procedure: A total of 5000 pdOVCICs were seeded onto each well in 96-well plates and each plate was treated with different concentrations of Niclosamide in duplicates for 3 days. The vitality of pdOVCICs cells was measured by MTS assay.

CP70 cells = experiment: Cytotoxicity on CP70 (OVCA) cells
MCF-7 cells = experiment: Toxicity of Paclitaxol on MCF-7 cells; type: cell-based
Source text: (§2) Next, we compared the toxicity effects of the anti-cancer drug, Paclitaxol, on MCF-7 cells, MCF-7 SPS cells, MDA-MB 231 cells and MDA-MB 231 SPS.

MCF-7 SPS cells [3] = experiment: Toxicity of Paclitaxol on MCF-7 sps cells; type: cell-based
Source text: as §2

shh = experiment: Signaling inhibitors on MCF-7 SPS cells: shh; type: cell-based; conditions: 30 μM, 3 days
Source text: Moreover, MCF-7 SPS cells were affected by the expression of Wnt, NOTCH and shh which caused morphological changes. […] Based on the aforementioned experiments, MCF-7 SPS cells contain cancer stem cells that can undergo further differentiation (FIG. 5B).

[4] = Cisplatin treatment, FIGS. 10A-10C

Molecule | Cancer cell survival (%) (MCF-7 SPS cells [1]) | Cancer cell survival (%) (OVCA sps cells) | other results
CCCCCCCCCCCCCCCC(=O)OC(CC(=O)O)C[N+](C)(C)C.[Cl-] (racemic) [Palmitoyl-DL-Carnitine chloride] | 9.7 |  | 
CCn1cnc2c(Nc3cccc(Cl)c3)nc(N[C@@H]3CCCC[C@@H]3N)nc21.Cl (relative stereo) [CGP-74514A hydrochloride, N2-(cis-2-Aminocyclohexyl)-N6-(3-chlorophenyl)-9-ethyl-9H-purine-2,6-diamine hydrochloride] | 10 |  | 
O.c1cnc2c(c1)ccc1cccnc12 [1,10-Phenanthroline monohydrate] | 7 |  | 
N#Cc1c(-c2ccccc2)no[n+]1[O-] [4-Phenyl-3-furoxancarbonitrile] | 1.1 |  | 
O=Nc1ccc2oc(=O)ccc2c1 [6-Nitroso-1,2-benzopyrone] | 1.5 |  | 
CC(C)(C)[C@]1(O)CCN2Cc3cccc4c3[C@H](c3ccccc3CC4)[C@@H]2C1.Cl [(+)-Butaclamol hydrochloride] |  | 42.81 | inhibition / cytotoxicity effect on CP70 sps (OVCA sps) cells (CP70 sps cells; hydrochloride): can kill; also recorded: significant inhibition effect; inhibition / cytotoxicity effect on CP70 sps (OVCA sps) cells (CP70 sps cells; listed as (+)-butaclamol hydrochloride, hydrochloride): significant inhibition effects; numbers of ovarian cancer stem cells in CP70 SPS cell culture in vitro (CP70 sps cells; FIG. 14 / FIG. 15): inhibited; differentiation and growth of ovarian cancer cells [2]: successfully inhibited; cytotoxicity effect on CP70 (OVCA) cells (CP70 cells; 3 μM, hydrochloride): can kill; also recorded: toxic
CC[C@@]1(O)C(=O)OCc2c1cc1n(c2=O)Cc2cc3ccccc3nc2-1 [(S)-(+)-Camptothecin] | 8.2 | 39.11 | 
N.S=C(S)N1CCCC1 [Ammonium pyrrolidinedithiocarbamate] | 4.4 |  | 
O=C1Nc2cc(Br)ccc2/C1=C1/Nc2ccccc2/C1=N\O [BIO, (2′Z,3′E)-6-Bromoindirubin-3′-oxime] | 2.4 |  | 
CC(C)(C)c1ccc(S(=O)(=O)/C=C/C#N)cc1 [Bay 11-7085, (E)3-((4-t-Butylphenyl)sulfonyl)-2-propenenitrile] | 4 |  | 
CN1CCN(c2nc3cc(C(F)(F)F)ccc3n3cccc23)CC1.O=C(O)/C=C\C(=O)O [CGS-12066A maleate, 7-Trifluoromethyl-4-(4-methyl-1-piperazinyl)pyrrolo-[1,2-a]quinoxaline maleate salt] | 16.3 |  | 
Brc1c(Br)c(Br)c2[nH]cnc2c1Br [CK2 Inhibitor 2, 4,5,6,7-tetrabromobenzimidazole] | 8.3 |  | 
CNc1ccc2oc(C[C@H]3O[C@@]4(CC[C@H]3C)O[C@H]([C@H](C)C(=O)c3ccc[nH]3)[C@H](C)C[C@H]4C)nc2c1C(=O)O [Calcimycin] |  | 42.70 | 
Clc1ccc(C(c2ccc(Cl)cc2)n2cc[n+](CC(OCc3ccc(Cl)cc3Cl)c3ccc(Cl)cc3Cl)c2)cc1.[Cl-] (centres unmarked) [Calmidazolium chloride, 1-[bis(4-Chlorophenyl)methyl]-3-[2-(2,4-dichlorophenyl)-2-(2,4-dichlorobenzyloxy)ethyl]-1H-imidazolium chloride] | 3.9 |  | 
COc1ccc2c(c[n+](C)c3c4cc5c(cc4ccc23)OCO5)c1OC [Chelerythrine chloride] | 9.9 |  | 
N.N.[Cl][Pt][Cl] [Cisplatin] |  |  | inhibition of CP70 sps cells (CP70 sps cells; [4]): inhibited; inhibition of CP70 cells (CP70 cells; [4]): inhibited
Cc1cc(N)c2ccccc2[n+]1CCCCCCCCCC[n+]1c(C)cc(N)c2ccccc21 [Dequalinium dichloride] |  | 54.68 | 
C[C@@H]1O[C@@H](O[C@H]2C[C@@H](O)[C@]3(CO)[C@H]4[C@H](O)C[C@]5(C)[C@@H]([C@@H]6COC(=O)C6)CC[C@]5(O)[C@@H]4CC[C@]3(O)C2)[C@H](O)[C@H](O)[C@H]1O [Dihydroouabain] | 9.1 | 45.97 | 

Molecule | Cancer cell survival (%) (MCF-7 SPS cells [1]) | Cancer cell survival (%) (OVCA sps cells) | other results
c1ccc2c(c1)[I+]c1ccccc1-2 [Diphenyleneiodonium chloride] |  | 31.37 | 
CC[C@H]1CN2CCc3cc(OC)c(OC)cc3[C@@H]2C[C@@H]1C[C@H]1NCCc2cc(OC)c(OC)cc21 [Emetine dihydrochloride hydrate] | 7.3 | 49.13 | 
COc1ccc(NC(=O)c2ccc(-c3ccc(-c4noc(C)n4)cc3C)cc2)cc1N1CCN(C)CC1.Cl.O [GR 127935 hydrochloride, N-[4-Methoxy-3-(4-methyl-1-piperazinyl)phenyl]-2′-methyl-4′-(5-methyl-1,2,4-oxadiazol-3-yl)-1,1′-biphenyl-4-carboxamide hydro chloride hydrate] | 2.8 |  | 
O=C1c2c(O)ccc(O)c2C(=O)c2c(NCCNCCO)ccc(NCCNCCO)c21 [Mitoxantrone] | 5.2 |  | 
C[C@@H]1O[C@@H](O[C@H]2C[C@@H](O)[C@]3(CO)[C@H]4[C@H](O)C[C@]5(C)[C@@H](C6=CC(=O)OC6)CC[C@]5(O)[C@@H]4CC[C@]3(O)C2)[C@H](O)[C@H](O)[C@H]1O [Ouabain] | 1.8 | 26.69 | 
CC(=O)O[C@H]1C(=O)[C@@]2(C)[C@H]([C@H](OC(=O)c3ccccc3)[C@]3(O)C[C@H](OC(=O)[C@H](O)[C@@H](NC(=O)c4ccccc4)c4ccccc4)C(C)=C1C3(C)C)[C@]1(OC(C)=O)CO[C@@H]1C[C@@H]2O [Paclitaxol] |  |  | toxicity effect on MCF-7 cells (MCF-7 cells): notably inhibited; toxicity effect on MCF-7 sps cells (MCF-7 SPS cells [3]): no effect
COc1cc2nc(N3CCN(C(=O)c4ccco4)CC3)nc(N)c2cc1OC [Prazosin hydrochloride] | 1.1 |  | 
C=CC1=C(C)c2cc3[nH]c(cc4nc(cc5[nH]c(cc1n2)c(C)c5CCC(=O)O)C(CCC(=O)O)=C4C)c(C)c3C=C [Protoporphyrin IX disodium] | 1.8 | 34.75 | 
CCN(CC)CCCC(C)Nc1c2ccc(Cl)cc2nc2ccc(OC)cc12 (centres unmarked) [Quinacrine dihydrochloride] | 3.8 |  | 
CC1=C(/C=C/C(C)=C/C=C/C(C)=C/C(=O)Nc2ccc(O)cc2)C(C)(C)CCC1 [Retinoic acid p-hydroxyanilide] | 13 |  | 
CC(=O)c1c(O)c(C)c(O)c(Cc2c(O)c3c(c(C(=O)/C=C/c4ccccc4)c2O)OC(C)(C)C=C3)c1O [Rottlerin] |  | 38.89 | inhibition / cytotoxicity effect on CP70 sps (OVCA sps) cells (CP70 sps cells): significant inhibition effect; also recorded: toxic
COc1ccc2c(c1)/C(=C/c1cnc[nH]1)C(=O)N2 [SU 9516, 3-[1-(3H-Imidazol-4-yl)-meth-(Z)-ylidene]-5-methoxy-1,3-dihydro-indol-2-one] | 10.7 |  | 
C[n+]1cc2c3c(ccc2c2ccc4cc5c(cc4c21)OCO5)OCO3 [Sanguinarine chloride] |  | 20.37 | 
CCN(CC)C(=S)SSC(=S)N(CC)CC [Tetraethylthiuram disulfide] | 10.18 |  | 
CC1(C)CCC2=C(O1)c1ccccc1C(=O)C2=O [beta-Lapachone, 3,4-Dihydro-2,2-Dimethyl-2H-Naphtho[1,2-B] Pyran-5,6-Dione] | 1.67 |  | 
CC1=C2C[C@H]3[C@@H](CC=C4C[C@@H](O)CC[C@@]43C)[C@@H]2CC[C@]12O[C@@H]1C[C@H](C)CN[C@H]1[C@H]2C [cyclopamide] |  |  | expression of shh (shh): inhibited
CC1CCCC=CC2CC(O)CC2C(O)C=CC(=O)O1 (centres unmarked) [γ-4-Dihydroxy-2-(6-hydroxy-1-heptenyl)-4-cyclopentanecrotonic acid λ-lactone] | 6.6 | 41.18 | 
Vinblastine sulfate salt |  | 64.6 | 
